Experimental data from patent publication US12247010B2, “Tubulin inhibitors” (LIN BIOSCIENCE PTY LTD., priority 2017, dated 2025).

Key:
[1] = system: tubulin; test: Tubulin polymerization assay (Cytoskeleton, Inc. inhibitor screening protocol); assay type: biochemical; details: 3 μM, 37C, compared to DMSO control
Protocol: Example 4. Tubulin Polymerization Assay
Compounds described herein were tested in a tubulin polymerization inhibition assay using the general manufacturer's protocol for inhibitor screening (Cytoskeleton, Inc. BK01 IP). DMSO was used as a negative control, and vinblastine was tested as a positive control. All compounds were tested at a concentration of 3 μM, and incubation was carried out at 37C for 60 minutes. Results were calculated as a percent inhibition (compared to DMSO control) after 60 min of incubation, the results of which are shown in Table 3.

[2] = system: U87MG cells; test: Cytotoxicity assay (cell viability, CellTiter 96 Aqueous MTS); assay type: cell-based; details: Homo sapiens, U-87 MG, 72 h, 72 hours incubation, starting concentration 50 uM, 9 point half log dilution, average where tested repeatedly
Outline: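 U87MG cells plated at 7×10^3 cells/well overnight, then treated 72 h with 9-point half-log dilutions from a 50 uM starting concentration. Viability measured with CellTiter 96 Aqueous MTS; IC50 calculated from viability.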

Compound | % Tubulin Polymerization at 60 min [1] | IC50 [2] [nM]
O=C(Nc1ccc2[nH]ccc2c1)N1CCN(c2ccc(-c3ccccc3F)cc2)CC1 [Compound 280, 4-(2′-fluoro-[1,1′-biphenyl]-4-yl)-N-(1H-indol-5-yl)piperazine-1-carboxamide] | F (F is 81-100%) | < 500
Nc1ncc(C(=O)NCCCc2ccc(-c3ccccc3F)cc2)cn1 [Compound 96] | A (A is < 20%) | < 500
Cc1ncccc1C(=O)NCCCc1ccc(-c2ccccc2F)cc1 [Compound 81, N-(3-(2′-fluoro-[1,1′-biphenyl]-4-yl)propyl)-2-methylnicotinamide] | A (A is < 20%) | < 500
O=C(CCCc1ccc(-c2ccc3[nH]c(=O)ccc3c2)cc1)Nc1cccnc1 [Compound 207, 4-(4-(2-oxo-1,2-dihydroquinolin-6-yl)phenyl)-N-(pyridin-3-yl)butanamide] | D (D is 61-80%) | < 500
Cc1cc(C(=O)NCCCc2ccc(-c3ccc4[nH]ncc4c3C)cc2)no1 [Compound 230, 5-methyl-N-(3-(4-(4-methyl-1H-indazol-5-yl)phenyl)propyl)isoxazole-3-carboxamide] | C (C is 41-60%) | < 500
Cc1cc(C(=O)NCCCc2ccc(-c3ccc4ncccc4c3)cc2)no1 [Compound 239, 5-methyl-N-(3-(4-(quinolin-6-yl)phenyl)propyl)isoxazole-3-carboxamide] | C (C is 41-60%) | < 500
Cn1ncc2cc(-c3ccc(CCCNC(=O)c4cnc(N)nc4)cc3)ccc21 [Compound 232, 2-amino-N-(3-(4-(1-methyl-1H-indazol-5-yl)phenyl)propyl)pyrimidine-5-carboxamide] | C (C is 41-60%) | < 500
Cc1cc(C(=O)NCCCc2ccc(-c3cnc4[nH]ccc4c3)cc2)n(C)n1 [Compound 233, N-(3-(4-(1H-pyrrolo[2,3-b]pyridin-5-yl)phenyl)propyl)-1,3-dimethyl-1H-pyrazole-5-carboxamide] | A (A is < 20%) | < 500
O=C(CCCc1ccc(-c2ccc3cnccc3c2)cc1)Nc1cccnc1 [Compound 214, 4-(4-(isoquinolin-6-yl)phenyl)-N-(pyridin-3-yl)butanamide] | F (F is 81-100%) | < 500
O=C(NCCCc1ccc(-c2ccccc2F)cc1)c1ccc2[nH]cnc2c1 [Compound 136, N-(3-(2′-fluoro-[1,1′-biphenyl]-4-yl)propyl)-1H-benzo[d]imidazole-5-carboxamide] | A (A is < 20%) | < 500
COc1ccc(CC(=O)NCCCc2ccc(-c3ccccc3F)cc2)cc1 [Compound 101, N-(3-(2′-fluoro-[1,1′-biphenyl]-4-yl)propyl)-2-(4-methoxyphenyl)acetamide] | C (C is 41-60%) | < 500
